In US20220257541A1, “Lacosamide for the Treatment of ADD/ADHD” (priority 2019, published 2022):

Experiments:
[1] = system: potassium or calcium currents; conditions: cited from earlier work
[2] = system: children and adolescents with ADHD syndrome; experiment: Case Study 3: STROOP-P test; assay type: in vivo, human
Procedure: (§1) These tests offered an objective element that contributed to the establishment of the diagnosis.
(§2) Neuropsychological evaluation was repeated after six months on medication, at the end of the study. These evaluations were guided by trained neuropsychologists. Four different evaluations were conducted: Continuous Performance Test (CPT)1, STROOP-P test, Wisconsin Card sorting Test and the Non Verbal Intelligence Test.
The patients were assessed using the STROOP-P test, which is used to assess the ability to inhibit cognitive interference that occurs when the processing of a specific stimulus feature impedes the simultaneous processing of a second stimulus attribute, well-known as the Stroop Effect.

[3] = system: children and adolescents with ADHD syndrome; experiment: Case Study 3: neuropsychological results analysis (executive function, attention); assay type: in vivo, human; conditions: after six months on medication
Procedure: as §2
We measured pedagogical values and characteristics of the executive function (Reasoning, Cognitive Flexibility, Attentional function, Intellectual Quotient, impulse inhibition, Perseveration resistance) throughout the course of the treatment with lacosamide.

[4] = system: children and adolescents with ADHD syndrome; experiment: Case Study 3: IQ test prior to and after treatment; assay type: in vivo, human; conditions: for IQ: Post-treatment, patient
Procedure: IQ was tested prior to and after treatment.

[5] = system: voltage-gated sodium channels; conditions: cited from earlier work
[6] = system: children and adolescents with ADHD syndrome; experiment: Case Study 3: Wisconsin Card Sorting Test (WCST) Reasoning; assay type: in vivo, human; conditions: second evaluation
Procedure: as §1, §2
(§3) The patients were assessed using the Wisconsin Card Sorting Test (WCST), which is used to measure higher-level cognitive processes, such as attention, perseverance, abstract thinking, and set shifting. It is particularly used in clinical fields to measure perseverative behaviours that refer to an individual's insistence on wrong behaviour.

[7] = molecular target: GABA transaminase (Homo sapiens, UniProt P80404); conditions: cited from earlier work
[8] = system: children and adolescents with ADHD syndrome; experiment: Case Study 3: pedagogical evaluation (literary and mathematical skills); assay type: in vivo, human
Procedure: In order to evaluate the academic level of the patients and later evolution while being treated, we established indicators of literary and mathematical skills of the patients in line with the official assessment of the Ministry of Education of the Dominican Republic.
Academic evolution was assessed 90 days after initiating the treatment and at the end of the 6th month.
In order to measure academic evolution we used different parameters, which are: Spanish language, Reading, Writing, Comprehension of their own reading, Mathematics, Reasoning, argumentation capacities and Problem solving.
Independently, we established at each evaluation the attained level of alphabetisation and the acquisition of literary skills every patient had, as shown in Table 3.
We categorised the sample following the protocol of the local Ministry of Education's Evaluation tool, which will qualify students following the consideration of “Non Acquired”, “Towards Acquisition” or “Acquired” levels.

[9] = system: patient suffering from ADHD; experiment: Case Study 2: lacosamide mono-therapy in a person with ADHD; assay type: in vivo, human; conditions: mono-therapy for several weeks
Procedure: We conducted a second case study to validate earlier results of Case Study 1. The patient was a person suffering from ADHD (with no comorbidity such as epilepsy or bipolar disorder). The patient was treated with a lacosamide mono-therapy for several weeks based on the conventional treatment regime for lacosamide (for the treatment of epilepsy and/or bipolar disorder) for subjects weighting 50 kg or more.

[10] = system: children and adolescents with ADHD syndrome; experiment: Case Study 3: Tutors evaluation pre to post treatment (DSM-V questionnaire); assay type: in vivo, human
Procedure: The Tutors Pre-Post Evaluation (self-administrated) was performed at the end of the study. This assessment required the person responsible for the patient's everyday life and care to evaluate the progression through the period of the study, including intellectual and behavioural changes.
The tutors have evaluated the patients using the DSM-V questionnaire, which is typically used as a standard to classify mental disorders by mental health professionals in the United States.

[11] = system: children and adolescents with ADHD syndrome; experiment: Case Study 3: Test of Nonverbal Intelligence (TONI-2); assay type: in vivo, human
Procedure: as §1, §2
The patients were assessed using the Test of Nonverbal Intelligence (TONI-2), which is a language-free measure of abstract problem-solving ability.

[12] = system: children and adolescents with ADHD syndrome; experiment: Case Study 3: Wisconsin Card Sorting Test (WCST) Flexibility; assay type: in vivo, human
Procedure: as §1, §2, §3

[13] = end of the study, 17% prior to treatment

Sequence of GABA transaminase (P80404 29-500, species assumed): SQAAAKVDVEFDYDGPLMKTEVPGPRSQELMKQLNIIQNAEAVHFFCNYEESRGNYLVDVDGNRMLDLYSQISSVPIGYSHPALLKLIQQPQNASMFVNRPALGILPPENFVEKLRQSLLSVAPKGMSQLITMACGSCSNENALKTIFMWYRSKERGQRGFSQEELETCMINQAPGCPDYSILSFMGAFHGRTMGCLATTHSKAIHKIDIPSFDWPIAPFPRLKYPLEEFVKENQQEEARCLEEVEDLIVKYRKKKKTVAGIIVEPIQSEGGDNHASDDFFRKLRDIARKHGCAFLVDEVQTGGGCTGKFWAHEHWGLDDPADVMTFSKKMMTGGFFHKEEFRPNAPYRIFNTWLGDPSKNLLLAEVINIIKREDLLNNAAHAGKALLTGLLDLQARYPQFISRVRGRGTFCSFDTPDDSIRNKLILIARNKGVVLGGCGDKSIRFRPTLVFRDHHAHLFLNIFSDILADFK

## COC[C@@H](NC(C)=O)C(=O)NCc1ccccc1 [lacosamide, (2R)-2-(acetylamino)-N-benzyl-3-methoxypropanamide]
[1]
  block of potassium or calcium currents: does not block
[2]; measured in both cerebral hemispheres
  ability to inhibit cognitive interference: positive but to a limited extent
[2]; second test, 8.3% in the first evaluation
  patients with Average result, STROOP-P: 25%
[2]; second test, 25% initially
  patients with Severe Deterioration, STROOP-P: 8.3%
[3]
  Visual Attention, Perseveration Resistance and Impulse Inhibition: did not show the expected improvement
  indicator Attentional Difficulty: improvement
  variables of distraction and impulsivity: no impact
[4]; 12 patients tested
  patients who maintained previous IQ levels: 23%
  patients who raised their IQ values: 77%
  patients with a lowering of the IQ value: In none of the patients
[4]; 2nd High School, Pre-treatment CI-80
  IQ: CI-90
[4]; 2nd High School, Pre-treatment CI-99
  IQ: CI-112
[4]; 2nd Primary, Pre-treatment CI-94
  IQ: CI-106
[4]; 3rd Primary, Pre-treatment CI-82
  IQ: CI-82
[4]; 3rd Primary, Pre-treatment CI-117
  IQ: CI-117
[4]; 5th Primary, Pre-treatment CI-81
  IQ: CI-91
[4]; 5th Primary, Pre-treatment CI-91
  IQ: CI-95
[4]; 5th Primary, Pre-treatment CI-95
  IQ: CI-104
[4]; 5th Primary, Pre-treatment CI-111
  IQ: CI-111
[4]; 6th Primary, Pre-treatment CI-93
  IQ: CI-95
[4]; 7th Primary, Pre-treatment CI-87
  IQ: CI-91
[4]; Bachelor, Pre-treatment CI-108
  IQ: CI-114
[4]; subgroup of 33% of the patients
  IQ progression on average: four
[4]; subgroup of 40% of the patients
  IQ progression average: around 11±2 points
[4]; subgroup that progressed on average by four points
  patients in the subgroup with the smaller IQ progression: 33%
[4]; subgroup with progression average of around 11±2 points
  patients in the subgroup with the larger IQ progression: 40%
[4]; sum for 12 patients tested
  global IQ increase: 60 points
[5]
  fast inactivation of voltage-gated sodium channels: without affecting
  slow inactivation of voltage-gated sodium channels: enhances
[6]; 50% in the first evaluation
  patients in Severe Deterioration category, WCST Reasoning: 25%
[6]; from 41.7%
  patients in the 3 highest categories, WCST Reasoning: 58.3%
[7]
  inhibition of GABA transaminase: does not inhibit
[8]; 6-month treatment, tests pre-treatment, after 3 and 6 months
  pedagogic evaluation, all tested competencies: gradual progression
[8]; after 3 months of treatment, initial 25%
  patients who completely acquired Reasoning and Solving Problems (Mathematics): 50%
[8]; end of the study
  subjects at the intermediate level, Towards Acquisition: 25%
[8]; end of the study versus first evaluation
  change in patients who acquired the reading and writing skills: +60%
[8]; [13]
  patients able to understand what they were reading (Comprehensive Reading): 83%
  patients who completely acquired the reading and writing skills: 75%
[8]; end of the study, 83% prior to treatment
  subjects at the non-acquired level (Read, Write, Comprehensive Reading): 0%
[8]; maintained until the end of the study, 25% at the beginning
  proportion of the sample Alphabetised (alphabetical level): 75%
[9]
  ADHD symptomatology: slowly regressed
  cognitive functionality: significant improvement
[10]
  behaviour, tutors' DSM-V questionnaire: significantly improved across all tested elements
[11]; after six months on medication
  non-verbal reasoning: number of subjects who reached the high average level: doubling
[11]; end of the tested period, from 16.7%
  patients scoring high average in TONI-2: 33.3%
[11]; end of the tested period, from 50%
  patients scoring average in TONI-2: 58.3%
[12]; after six months on medication
  cognitive flexibility: improving
[12]; second evaluation, 25% in the first evaluation
  patients with Average and High Average scores, WCST Flexibility: 50%
[12]; second evaluation, 41.7% in the first evaluation
  patients in the lowest two categories (Mild and Severe Deterioration), WCST Flexibility: 16.6%
